The assay addresses T1, human MRGPRX2 (Homo sapiens, UniProt Q96LB1).
T1 sequence (Q96LB1 1-330): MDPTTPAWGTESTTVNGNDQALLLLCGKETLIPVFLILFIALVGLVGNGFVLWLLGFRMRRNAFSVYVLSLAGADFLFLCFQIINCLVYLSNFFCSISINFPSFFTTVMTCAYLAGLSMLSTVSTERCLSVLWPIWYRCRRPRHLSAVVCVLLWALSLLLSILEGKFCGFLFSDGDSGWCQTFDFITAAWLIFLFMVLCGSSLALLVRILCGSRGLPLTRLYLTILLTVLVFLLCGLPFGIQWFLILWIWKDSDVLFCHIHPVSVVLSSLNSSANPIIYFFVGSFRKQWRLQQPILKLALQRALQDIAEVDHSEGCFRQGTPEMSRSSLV
Description: Ca2+ mobilization assay (FLIPR TETRA): inhibition of Cortistatin-14 mediated MRGPRX2 activation. A general note: Calcium assays in cells follow changes in intracellular calcium, usually with a dye or a luminescent sensor.

In general, IC50 refers to the point on the concentration scale where inhibition reaches its midpoint. Take `CC(=O)NCc1cc(C2CN(C(C)C(=O)Nc3ccc(Oc4ccc(F)cc4F)cn3)CCC2(F)F)cc[n+]1[O-]` (mixture of isomers) [Example 262, 2-(acetamidomethyl)-4-(1-(1-((5-(2,4-difluorophenoxy)pyridin-2-yl)amino)-1-oxopropan-2-yl)-4,4-difluoropiperidin-3-yl)pyridine 1-oxide]: the IC50 was no more than 10 nM. The figure for `CC(C(=O)Nc1ccc(Oc2ccc(F)cc2F)cn1)N1CCC(F)(F)C(c2ccnc(CN)c2)C1` (mixture of isomers) [Example 264, 2-(3-(2-(aminomethyl)pyridin-4-yl)-4,4-difluoropiperidin-1-yl)-N-(5-(2,4-difluorophenoxy)pyridin-2-yl)propanamide] is no more than 10 nM. The result for `C[C@@H](C(=O)Nc1ccc(Oc2ccc(F)cc2F)cn1)N1CCC(F)(F)C(c2cncc(C(O)C(F)(F)F)c2)C1` (mixture of isomers) [Example 265, (2S)-2-(4,4-difluoro-3-(5-(2,2,2-trifluoro-1-hydroxyethyl)pyridin-3-yl)piperidin-1-yl)-N-(5-(2,4-difluorophenoxy)pyridin-2-yl)propanamide] reads no more than 10 nM; that for `C[C@@H](C(=O)Nc1ccc(Oc2ccc(F)cc2F)cn1)N1CCC(F)(F)C(c2cc(C(O)C(F)(F)F)c[n+]([O-])c2)C1` (mixture of isomers) [Example 266, 3-(1-(1-((5-(2,4-difluorophenoxy)pyridin-2-yl)amino)-1-oxopropan-2-yl)-4,4-difluoropiperidin-3-yl)-5-(2,2,2-trifluoro-1-hydroxyethyl)pyridine 1-oxide], 10 to 100 nM; that for `C[C@@H](C(=O)Nc1ccc(Oc2ccc(F)cc2F)cn1)N1CCC(F)(F)C(c2ccnc(CN3CC(F)(F)C3)c2)C1` (mixture of isomers) [Example 270, (2S)-2-(3-(2-((3,3-difluoroazetidin-1-yl)methyl)pyridin-4-yl)-4,4-difluoropiperidin-1-yl)-N-(5-(2,4-difluorophenoxy)pyridin-2-yl)propanamide], 10 to 100 nM. The result for `Cc1cc([C@@H]2CN([C@H](C)C(=O)Nc3ccc(Oc4ccc(F)cc4)cn3)CCC2(F)F)cc[n+]1[O-]` (racemic) [Example 218, 4-((R)-4,4-difluoro-1-((R)-1-((5-(4-fluorophenoxy)pyridin-2-yl)amino)-1-oxopropan-2-yl)piperidin-3-yl)-2-methylpyridine 1-oxide and 4-((S)-4,4-difluoro-1-((S)-1-((5-(4-fluorophenoxy)pyridin-2-yl)amino)-1-oxopropan-2-yl)piperidin-3-yl)-2-methylpyridine 1-oxide] reads 10 to 100 nM; that for `C[C@@H](C(=O)Nc1ccc(Oc2ccc(F)cc2F)cn1)N1CCC(F)(F)C(c2ccnc(C(N)=O)c2)C1` (mixture of isomers) [Example 261, 4-(1-((S)-1-((5-(2,4-difluorophenoxy)pyridin-2-yl)amino)-1-oxopropan-2-yl)-4,4-difluoropiperidin-3-yl)picolinamide], no more than 10 nM.

As to `C[C@@H](C(=O)Nc1ccc(OCC2CC2)cn1)N1CCC(F)(F)[C@@H](c2ccc(=O)n(CC(F)(F)F)c2)C1` (single isomer, unassigned) [Example 2], the IC50 is no more than 10 nM.

`C[C@@H](C(=O)Nc1ccc(F)cn1)N1CCC(F)(F)[C@@H](c2cn(CC(F)(F)F)c(=O)cn2)C1` (single isomer, unassigned) [Example 103] returned an IC50 of no more than 10 nM. `C[C@@H](C(=O)Nc1ccc(OCC2CC2)nn1)N1CCC(F)(F)[C@@H](c2c[nH]c(=O)c(N)n2)C1` (single isomer, unassigned) [Example 104] came in with a half-maximal inhibitory concentration (IC50) of no more than 10 nM. `C[C@@H](C(=O)Nc1ccc(OCC2CC2)nn1)N1CCC(F)(F)[C@@H](c2cc[n+]([O-])cc2)C1` (single isomer, unassigned) [Example 109] registered an IC50 of 100 to 3160 nM. The result for `C[C@@H](C(=O)Nc1ccc(Cl)cn1)N1CCC[C@@H](c2ccc(=O)n(CC(F)(F)F)c2)C1` (single isomer, unassigned) [Example 167] reads 100 to 3160 nM.
